Results on six molecules are retold here after patent US20090124608A1, “CB2 Receptor Modulators In Neurodegenerative Diseases And Applications Of The Same” (priority 2006, published 2009).

Data set [1] concerns G93A-SOD1 mice. Description: Survival of G93A mice, daily i.p. treatment initiated at symptom onset. The class given is in vivo, mouse. The settings on record: for survival interval (symptom onset to sacrifice): vehicle 23.7+/−1.7 days; for Survival Interval Ratio (SIR) / Total Life-Span Ratio (TLR): G93A mice, i.p. daily from onset. From the text: Hemizygous transgenic male mice with the G93A mutation of the human SOD1 gene (G1H/1) mutation (B6SJL-TgN (SOD1-G93A) 1 Gur) were obtained from Jackson Laboratories and were bred locally with female B6SJL mice (Jackson Laboratory), according to the protocol obtained from the vendor. To decrease the inherent variability in disease onset and survival with these mice, littermate transgenic males (rather than random males from several different litters) were selected to sire subsequent generations of mice.
Determination of symptom onset, randomization and drug treatment of G93A mice. Symptom onset was assessed by blinded observation of changes in hind limb gait; these changes are related to the mouse's inability to support its weight on its hind limbs. At onset, mice initially place their weight on the toes and then quickly fall to full foot placement (as opposed to healthy mice which walk and run on the hind toes); this “toe-to-heel” walking pattern produces an asymmetric gait between hind and fore limbs and a characteristic “wobbling” gait. Mouse groups were randomized based on symptom onset and alternately placed in control and treated groups, e.g., the first mouse to develop hind limb weakness was placed in the control group, the second was injected with test compound and placed in the treatment group, and so on. […] By definition, the onset administration paradigm employed was focused on what we term the “survival interval”—namely the time from onset to end-stage sacrifice.
Mice were sacrificed when any of the following criteria were met: (1) inability to right themselves within 30 seconds when placed on their sides; (2) inability to eat or drink, or move toward food and water placed in low-rimmed dishes on cage floor; (3) loss of more than 10% of total body weight in 24 hours; (4) gross loss of grooming behavior; or (5) labored breathing. Criteria for death were confirmed by a second investigator who is blinded to the group identity of each mouse. The age of symptom onset was subtracted from the age at death for each mouse, and a mean survival interval was calculated for each group. By calculating the ratio of the survival interval of treated groups to the survival interval of untreated littermate controls, a X-fold increase in survival was readily determined.
The effect of chronic administration of cannabinoids on the survival of G93A mice was next examined (FIG. 4). […] The number of days between symptom onset and animal sacrifice was measured (e.g., survival interval). In humans, this is analogous to the time between diagnosis of ALS and death, ranging from 2-5 years.

Data set [2] concerns G93A-SOD1 mice. The data set can be described thus: Motor function test (clinging to perpendicular wire mesh screen for 60 seconds) in G93A mice. It counts as in vivo, mouse. Here is the method: Beginning on the first day of observing symptoms, mice were tested for motor function biweekly until sacrifice. Motor function testing was initiated by gently placing animals on a horizontal wire mesh screen. The screen was slowly rotated to be perpendicular to the ground (90°). The duration that mice were able to hang onto the perpendicular wire mesh up to a maximum of 120 seconds was recorded. Because vehicle treated mice on average lost the ability to cling to the wire mesh for 60 seconds in the middle of their survival curve, this “all or none” response was utilized to compare motor function across all treatment groups. Kaplan-Meier time-to-event statistics were employed to analyze the data. The event was defined as the number of days after symptom onset that each individual animal was no longer able to cling to the wire mesh screen for 60 seconds.
Testing twice a week for the duration of the study provided a quantifiable decline during disease progression. Mice were placed on a horizontal wire mesh screen that was gently inverted to 90°. Kaplan-Meier time-to-event curves were used to analyze the data. The event was defined as the day each animal was no longer able to cling to the perpendicular screen for 60 seconds. […] The disparity between male and female motor function was paralleled by the interval between survival for the genders. Male mice survived an average of 39.6±2.0 (FIG. 6a) days past the onset of symptoms, while females lived 9 days longer than males (p<0.0018*, FIG. 6b). For males and females, loss of motor function preceded death by 20.5 (p<0.0002***) and 19.0 days (p<0.0028**), respectively.

Another data set relates to cannabinoid receptors. The data set can be described thus: GTPγS binding in end stage spinal cord homogenates from G93A-SOD1 mice, separated by gender. Particulars: for 2-AG stimulated G-protein activation remaining on co-incubation with CB2 ligand: 2-AG 3 μM; for 2-AG stimulated G-protein activation remaining on co-incubation with CB2 ligand / HU-210 stimulated G-protein activation remaining on co-incubation with CB2 ligand: ligand 1 μM; for HU-210 stimulated G-protein activation remaining on co-incubation with CB2 ligand: HU-210 100 nM. The class given is biochemical, mouse. Here is the method: (§1) [^35S]GTPγS binding assays were performed as described previously (Prather et al. 2000a) in a buffer containing 20 mM Hepes, 100 mM NaCl, and 10 mM MgCl2 at pH 7.4. Each binding reaction contained 10 μg of spinal cord membrane protein, the presence or absence of cannabinoid ligands (see following), plus 0.1 nM [^35S]GTPγS (1250 Ci/mmol, Perkin Elmer Life and Analytical Sciences) and […] of GDP to suppress basal G-protein activation. Reactions were incubated for 2 hrs at 30 °C. Non-specific binding was defined by binding observed in the presence of 10 μM of non-radioactive GTPγS. The reaction was terminated by rapid vacuum filtration through glass fiber filters followed by two washes with ice-cold assay buffer. 4 mL of scintiverse® (Fisher Scientific) was added to the filters and radioactivity quantified by scintillation counting.
Harvested spinal cords from the vehicle treated control groups at the end-stage of their disease were separated by gender and used to conduct GTP7S binding experiments, which measure the capability of a ligand to promote or suppress G-protein activation.
It was next determined if the selective CB2 ligands antagonize G-protein activation produced by an endocannabinoid such as 2-AG as well.
In general terms: GTPγS resists hydrolysis and so accumulates on activated G proteins.

The next data set deals with CB1 and CB2 receptors. Description: [35S]GTPγS binding with selective agonists in mouse spinal cord membranes. The class given is biochemical. The settings on record: data not shown. Here is the method: as §1
We initially attempted to compare CB 1 and CB2 receptor activation of G-proteins between WT-OE and G93A spinal cord membranes by conducting [^35S]GTPγS binding assays in the presence of selective agonists.

Data set [3] addresses CB1 receptors. Particulars: Yao et al. 2006; read-out: affinity for CB1 receptors; cited from earlier work.
The target in another data set is CB2 receptors (Homo sapiens, UniProt P34972). The settings on record: Yao et al. 2006, cited from earlier work.
Data set [4] in a line: Water solubility and dissolution in vehicles.
Data set [5] has as its system CB1/CB2 receptors. Description: [35S]GTPγS binding, selective antagonism of HU-210, WT-OE spinal cord membranes. The class given is biochemical, mouse. The settings on record: antagonist 3 μM.
For data set [6], the system named is CB1/CB2 receptors. The data set can be described thus: [35S]GTPγS binding, selective antagonism of HU-210, G93A spinal cord membranes. The class given is biochemical, mouse. The settings on record: antagonist 3 μM.
The target in data set [7] is T1, CB1 receptors (Mus musculus, UniProt P47746).
T1 construct: employing membranes prepared from mouse cortex as a relatively pure source of CB1 receptors; from tissue; host or cells: mouse cortex
Description: Antagonism of HU-210 G-protein activation in mouse cortex membranes. The class given is biochemical. The settings on record: cortical membranes, HU-210 100 nM.
Description: This was accomplished by antagonism experiments employing membranes prepared from mouse cortex as a relatively pure source of CB1 receptors.

Data set [8] relates to G93A-SOD1 mice. Particulars: administration after the onset of symptoms; Raman et al. 2004, Weydt et al. 2005; cited from earlier work.
The mark [9] stands for this setting: daily injections initiated at symptom onset.
The mark [10] stands for this setting: WT-OE spinal cord membranes, HU-210 100 nM.
Where [11] appears, read: G93A spinal cord membranes, HU-210 100 nM.

Structures are written as SMILES. “Also recorded” adds a separate entry of the source.

Sequence of CB2 receptors (P34972 whole entry): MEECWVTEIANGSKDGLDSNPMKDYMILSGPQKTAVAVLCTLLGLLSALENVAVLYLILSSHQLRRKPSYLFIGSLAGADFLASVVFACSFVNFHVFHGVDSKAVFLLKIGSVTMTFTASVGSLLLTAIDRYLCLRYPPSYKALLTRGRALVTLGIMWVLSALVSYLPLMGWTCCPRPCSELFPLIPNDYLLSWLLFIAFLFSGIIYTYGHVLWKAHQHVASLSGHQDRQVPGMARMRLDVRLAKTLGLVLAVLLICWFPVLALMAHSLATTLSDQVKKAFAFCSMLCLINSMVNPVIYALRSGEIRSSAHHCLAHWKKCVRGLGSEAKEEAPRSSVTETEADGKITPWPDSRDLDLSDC
T1 sequence (P47746 whole entry): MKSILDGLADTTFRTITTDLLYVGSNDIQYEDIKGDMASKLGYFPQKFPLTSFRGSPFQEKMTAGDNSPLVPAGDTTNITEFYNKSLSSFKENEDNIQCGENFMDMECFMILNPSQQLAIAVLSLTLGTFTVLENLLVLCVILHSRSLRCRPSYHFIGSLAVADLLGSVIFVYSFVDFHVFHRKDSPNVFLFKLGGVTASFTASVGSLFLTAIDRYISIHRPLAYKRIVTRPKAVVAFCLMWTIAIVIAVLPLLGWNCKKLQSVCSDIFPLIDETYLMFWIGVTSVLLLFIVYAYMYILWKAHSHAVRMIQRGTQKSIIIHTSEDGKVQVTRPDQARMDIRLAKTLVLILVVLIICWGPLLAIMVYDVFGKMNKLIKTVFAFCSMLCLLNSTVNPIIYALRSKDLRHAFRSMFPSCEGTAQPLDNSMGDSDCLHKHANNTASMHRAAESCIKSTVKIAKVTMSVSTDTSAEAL

Regarding `CN1CCCCC1Cn1cc(C(=O)c2cc([N+](=O)[O-])ccc2I)c2ccccc21` (racemic) [AM-1241, (R,S)-(+)-(2-Iodo-5-nitrobenzoyl)-[1-(1-methyl-piperidin-2-ylmethyl-1H-indole-3-yl]methanone], the “increase in survival interval versus vehicle” value with G93A-SOD1 mice [1] (0.3 mg/kg daily i.p.) came to 9.7 days; in the data set on G93A-SOD1 mice [1] (3 mg/kg daily i.p.), 13.2 days. Moreover, the “survival interval (symptom onset to sacrifice)” value came to 33.4 ± 2.2 days with G93A-SOD1 mice [1] (0.3 mg/kg daily i.p.) and 36.9 ± 2.8 days with G93A-SOD1 mice [1] (3 mg/kg daily i.p.). Further, the “Survival Interval Ratio (SIR)” value with G93A-SOD1 mice [1] (0.3 mg/kg) came to 1.41; in the data set with G93A-SOD1 mice [1] (3.0 mg/kg) it was 1.56. Moreover, the “Total Life-Span Ratio (TLR)” value is given as 1.07 with G93A-SOD1 mice [1] (0.3 mg/kg) and 1.11 in the data set with G93A-SOD1 mice [1] (3.0 mg/kg). The “extension of total life-span versus controls” value with G93A-SOD1 mice [1] (setting [9]) worked out at 11%. Also, the “living longer after symptom onset than controls (survival interval increase)” value in the data set with G93A-SOD1 mice [1] (setting [9]) is 56%. In addition, the “survival improvement versus vehicle, females” value with G93A-SOD1 mice [1] (female G93A mice, 3 mg/kg for AM-1241 and AM630, JTE-907 dose not given) was “did not live significantly longer”. Also, the “survival improvement versus vehicle, males” value in the data set on G93A-SOD1 mice [1] (male G93A mice, 3 mg/kg for AM-1241 and AM630, JTE-907 dose not given) came out at 19%. Moreover, the “effect on survival of G93A-SOD1 mice” value in the data set on G93A-SOD1 mice [1] (treatment initiated at symptom onset) is given as “pronounced increase in survival”. Moreover, the “improvement in motor function versus vehicle, females” value in the data set with G93A-SOD1 mice [2] (female G93A mice, time to loss of ability to cling 60 seconds) is reported as 37%. Further, the “interval between mean loss of motor function and death, females” value in the data set with G93A-SOD1 mice [2] (female mice, vehicle 19.0 days) turned out to be 9.0 days. In addition, the “improvement in motor function versus vehicle, males” value with G93A-SOD1 mice [2] (male G93A mice, time to loss of ability to cling 60 seconds) was 81%. Further, the “loss of motor function, days after observation of symptoms” value in the data set with G93A-SOD1 mice [2] (male mice, vehicle 19.1±3.9 days) came out at 34.5 ± 5.5 days. Further, the “interval between mean loss of motor function and death, males” value in the data set on G93A-SOD1 mice [2] (male mice, vehicle 20.5 days) stood at 12.8 days. Besides, the entries for the “2-AG stimulated G-protein activation remaining on co-incubation with CB2 ligand” value in the data set on cannabinoid receptors (female homogenate) and in the data set with cannabinoid receptors (male homogenate) were 11.62±2.2 fmole/mg protein and 9.09±52.1 fmole/mg protein, respectively. Also, the “HU-210 stimulated G-protein activation remaining on co-incubation with CB2 ligand” value in the data set on cannabinoid receptors (female homogenates) is 19.89±1.5 fmole/mg protein; in the data set with cannabinoid receptors (male homogenates), 9.73±2.5 fmole/mg protein. For the same molecule, the “effect on G-protein activation” value with cannabinoid receptors (male spinal cord) is listed as “relatively small decrease in G-protein activation”. For the same molecule, the “G-protein activation by selective agonist” value in the data set on CB1 and CB2 receptors is reported as “failed attempts to demonstrate consistent, measurable G-protein activation; also recorded: unable to demonstrate consistent, measurable G-protein activation”. Further, the Ki on CB1 receptors [3] is 580 nM; at CB2 receptors (read-out: affinity for CB2 receptors), 7 nM. For the same molecule, the “higher affinity for CB2 relative to CB1” value on CB2 receptors is reported as greater than 80 fold. Also, in data set [4], the “water solubility” value is listed as “very poor water solubility”. Besides, the “stable dissolution in tested vehicles” value in [4] (ethanol/water, glycerol, polyethylene glycol, high purity olive oil tested) is given as “achieved only with olive oil”.

Take `CCCCC/C=C\C/C=C\C/C=C\C/C=C\CCCC(=O)NCCCl` [ACEA, (all Z)-N-(2-cycloethyl)-5,8,11,14-eicosatetraenamide]: the “G-protein activation by selective agonist” value in the data set with CB1 and CB2 receptors was “failed attempts to demonstrate consistent, measurable G-protein activation; also recorded: unable to demonstrate consistent, measurable G-protein activation”.

Take `COc1ccc2c(c1)c(CCN1CCOCC1)c(C)n2C(=O)c1cccc(Cl)c1Cl` [GW-405833, (2,3-dichloro-phenyl)-[5-methoxy-2-methyl-3-(2-morpholin-4-yl-ethyl)-indol-1-yl]-methanone]: in the data set on CB1 and CB2 receptors, the “G-protein activation by selective agonist” value is reported as “failed attempts to demonstrate consistent, measurable G-protein activation; also recorded: unable to demonstrate consistent, measurable G-protein activation”.

Consider `CC1=CC[C@@H]2[C@@H](C1)c1ccc(CC#CCCCNS(C)(=O)=O)cc1OC2(C)C` [O-2050, (6aR,1OaR)-3-(1-Methanesulfonylamino-4-hexyn-6-yl)-6a,7,10,10a-tetrahydro-6,6,9-trimethyl-6H-dibenzo[b,d]pyran], for which the “net reduction of HU-210-induced G-protein activation” value in the data set on CB1/CB2 receptors [5] (WT-OE membranes) amounted to 28.3 fmoles/mg protein; with CB1/CB2 receptors [6] (G93A membranes), 25.9 fmole/mg protein. Also, the “% blockade of HU-210-induced G-protein activation” value is on record as 92% in the data set with CB1/CB2 receptors [5] (setting [10]); 45% in the data set on CB1/CB2 receptors [6] (setting [11]); 46% in the data set on CB1/CB2 receptors [6] (G93A spinal cord membranes, HU-210 100 nM, listed as 0-2050). Besides, the “HU-210 stimulated [35S]GTPγS binding remaining on co-incubation with antagonist” value is 2.5±0.8 fmole/mg protein with CB1/CB2 receptors [5] (setting [10]) and 31.5±4.4 fmole/mg protein in the data set on CB1/CB2 receptors [6] (setting [11]). Moreover, the “minimal concentration required to completely block HU-210-mediated G-protein activation by CB1 receptors” value on CB1 receptors [7] is on record as 3 μM.

With `CCCCCc1cc(O)c2c(c1)OC(C)(C)c1ccc(C)cc1-2` [cannabinol], the “delaying motor impairment and prolonging survival in G93A mice” value in the data set with G93A-SOD1 mice [8] is “minimally successful”.

For the molecule `CCCCCc1cc(O)c2c(c1)OC(C)(C)[C@@H]1CCC(C)=C[C@@H]21` [Δ^9-THC, Δ^9-Tetrahydrocannabinol], in the data set with G93A-SOD1 mice [8], the “delaying motor impairment and prolonging survival in G93A mice” value is on record as “minimally successful”.
